The values below come from article PMC5877736, “Functional Characteristics, Electrophysiological and Antennal Immunolocalization of General Odorant-Binding Protein 2 in Tea Geometrid, Ectropis obliqua” (International Journal of Molecular Sciences, 2018).

Where two headings read alike, the source gives them in different places.

The target in one experiment is EoblGOBP2 (Ectropis obliqua, UniProt C0JAP5). In words: Competitive fluorescence ligand-binding assay with 1-NPN as fluorescent probe. To be noted: for binding to EoblGOBP2 (in words): competitive binding with 1-NPN. The method, then:
For EoblGOBP2 binding assays, 1-NPN was used as a competitive fluorescent reporter. When 1-NPN was added dropwise to the protein solution, the maximum emission peak at 340 nm was shifted to about 420 nm. The dissociation constant of 1-NPN to EoblGOBP2 was approximately 2.31 μM calculated using the Scatchard equation (Figure 5A). Using 1-NPN as a fluorescent probe, the binding affinities of EoblGOBP2 to 19 ligands were measured using competitive binding assays. IC50 values and dissociation constants (KD) were then calculated (Table 1).
Ligand-binding assays were performed on a RF-5031pc Fluorescence Spectrophotometer (Shimadzu, Tokyo, Japan). The excitation and emission slits were set to 10 nm. Fluorescence spectra were recorded from 300 to 550 nm with an excitation wavelength of 282 nm. The recombinant EoblGOBP2 protein solutions (1.5 μM), served in 1 cm light path quartz cuvette, were titrated with 1 mM 1-NPN solution in methanol. The fluorescence intensity at the maximum emission wavelength of about 328 nm was linearized using the Scatchard equation [46], then the dissociation constants for 1-NPN (K1-NPN) was calculated.
Nineteen fresh tea leaf volatiles were used as test ligands. For the binding affinities of the ligands to EoblGOBP2, a mixture of 1-NPN and EoblGOBP2 protein was titrated with 1 μM ligands dissolved in methanol. The IC50 values were obtained by data linearization, and the dissociation constants (KD) were calculated using the following equation: KD = [IC50]/(1 + [1-NPN]/K1-NPN), where [1-NPN] is the free concentration of 1-NPN, and K1-NPN is the dissociation constant of the protein/1-NPN complex.

A further experiment relates to E. obliqua antennae. In words: Electroantennogram (EAG) of male and female antennae. The following applies: volatiles at 10 mg/mL (Figure 7). More on the design: species or system Ectropis obliqua. The protocol: To characterize the relationship between ligand-binding and E. obliqua olfactory activity, seven ligands with strong EoblGOBP2 binding affinities were selected for EAG measurements.
The antennal olfactory responses of E. obliqua to seven candidate tea volatiles were tested by the EAG technique. Prior to EAG experiments, all test ligands were dissolved into liquid paraffin at a concentration of 0.1 (v/v). The fresh […] antenna were excised from its base, and immediately attached onto the fork electrode holder using non-drying clay (Spectra 360 Electrode Gel, Parker Laboratories Inc., Orange, NJ, USA). […] All antennae should be tested in three replicates.
The odor stimulus was performed in the pulse while recording the electroantennogram of antennae. (E)-3-hexenol and liquid paraffin were chosen as the positive and negative control CK, respectively. All antennae were stimulated with five samples, and each tested sample was repeated six times. EAG signals were recorded and analyzed with EAG-Pro software (Syntech, Hilversum, NT). The relative values of EAG response were calculated using the following formula: Sr = (Sc − CKm)/(Rm − CKm)·100% [52]. Where Sr is the relative value of the EAG response, Sc is the EAG response for a certain odor, CKm is the mean of the EAG responses of liquid paraffin before and after the test odor stimulus, and Rm is the mean of the EAG response of (Z)-3-hexenol.

Where [1] appears, read: class symbol, protein 1.5 μM, read-out: KD Dissociation Constant.
The mark [2] stands for this setting: calculated from IC50: KD = [IC50]/(1 + [1-NPN]/K1-NPN), protein 1.5 μM, read-out: KD Dissociation Constant.
Setting [3] is: ligand concentration halving 1-NPN fluorescence, protein 1.5 μM.

Sequence of EoblGOBP2 (C0JAP5 entry or part of it): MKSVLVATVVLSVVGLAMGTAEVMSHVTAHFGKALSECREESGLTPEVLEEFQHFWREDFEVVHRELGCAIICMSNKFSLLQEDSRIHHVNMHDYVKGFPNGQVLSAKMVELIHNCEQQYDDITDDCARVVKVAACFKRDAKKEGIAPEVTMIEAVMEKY

Turning to `C1COCO1` [1,3-dioxolane], the IC50 (in general, the concentration needed to halve the response being measured) at EoblGOBP2 (class symbol, protein 1.5 μM) was more than 50 µM. The Kd on EoblGOBP2 (setting [1]) is more than 11.2 µM. Also, at EoblGOBP2, the “binding to EoblGOBP2 (in words)” value was “could not bind”.

On to `c1ccc(Nc2cccc3ccccc23)cc1` [1-NPN, N-phenyl-1-naphthylamine, reference compound], for which, at EoblGOBP2 (direct titration, Scatchard equation, read-out: dissociation constant of 1-NPN to EoblGOBP2), the Kd was approximately 2.31 µM.

Consider `C=CC(O)CC` (stereo not drawn) [1-penten-3-ol], for which the IC50 at EoblGOBP2 (class symbol, protein 1.5 μM) is more than 50 µM. Moreover, on EoblGOBP2 (setting [1]), the Kd was more than 11.2 µM.

Regarding `CCCCCCC/C=C/C=O` [(E)-2-decenal], at EoblGOBP2 (setting [2]), the Kd is 20.7 µM. Moreover, the half-maximal inhibitory concentration (IC50) on EoblGOBP2 (setting [3]) stood at 92.4 µM. Moreover, the “EAG response, male versus female antennae” value with E. obliqua antennae is reported as “stronger in male antennae than in female antennae”.

In the case of `CCC/C=C/C=O` [(E)-2-hexenal], the Kd on EoblGOBP2 (setting [2]) was 32.2 µM. Moreover, the half-inhibitory concentration (IC50) on EoblGOBP2 (setting [3]) was found to be 143 µM. Moreover, the “EAG response, male versus female antennae” value in the experiment on E. obliqua antennae was “stronger in male antennae than in female antennae”.

For the molecule `CC/C=C/C=O` [(E)-2-pentenal], on EoblGOBP2 (class symbol, protein 1.5 μM), the IC50 was more than 50 µM. Further, the Kd on EoblGOBP2 (setting [1]) was more than 11.2 µM.

At EoblGOBP2 (class symbol, protein 1.5 μM), `CC/C=C\CCO` [(Z)-3-hexenol] showed an IC50 of more than 50 µM. For the same molecule, the Kd on EoblGOBP2 (setting [1]) is more than 11.2 µM.

As for `CC(=O)c1ccccc1` [Acetophenone], on EoblGOBP2 (setting [2]), the Kd is 13 µM. In addition, the IC50 at EoblGOBP2 (setting [3]) is 57.9 µM. Besides, the “EAG response, male versus female antennae” value in the experiment on E. obliqua antennae is on record as “stronger in male antennae than in female antennae”.

On to `O=Cc1ccccc1` [Benzaldehyde], for which the Kd on EoblGOBP2 (setting [2]) is 44.2 µM. In addition, at EoblGOBP2 (setting [3]), the half-maximal inhibitory concentration (IC50) was 197 µM. Further, the “EAG response, male versus female antennae” value with E. obliqua antennae is on record as “stronger in male antennae than in female antennae”.

On EoblGOBP2 (class symbol, protein 1.5 μM), `OCc1ccccc1` [Benzyl alcohol] showed a concentration for half-maximal inhibition (IC50) of more than 50 µM. The Kd at EoblGOBP2 (setting [1]) was more than 11.2 µM.

Take `CCCCOC(=O)c1ccccc1C(=O)OCCCC` [Dibutyl phthalate]: the Kd on EoblGOBP2 (setting [2]) is 4.35 µM. In addition, the IC50 at EoblGOBP2 (setting [3]) is 19.4 µM. In addition, the “EAG response in male and female antennae (in words)” value in the experiment with E. obliqua antennae was “weak responses”.

As to `CCCCCCCCCCCCCCCC(=O)O` [Hexadecanoic acid], the half-maximal inhibitory concentration (IC50) on EoblGOBP2 (class symbol, protein 1.5 μM) is more than 50 µM. Further, the Kd on EoblGOBP2 (setting [1]) is more than 11.2 µM. Besides, the “binding to EoblGOBP2 (in words)” value at EoblGOBP2 is “could not bind”.

`C=CC(C)(O)CCC=C(C)C` (stereo not drawn) [Linalool] had a 50% inhibitory concentration (IC50) on EoblGOBP2 (class symbol, protein 1.5 μM) of more than 50 µM. Besides, the Kd at EoblGOBP2 (setting [1]) is more than 11.2 µM.

`COC(=O)c1ccccc1O` [Methyl salicylate]: the Kd on EoblGOBP2 (setting [2]) is 43.5 µM. The molecule also came in with an IC50 at EoblGOBP2 (setting [3]) of 194 µM. In the experiment on E. obliqua antennae, the “EAG response, male versus female antennae” value is given as “stronger in male antennae than in female antennae”.

With `CC(C)=CCC/C(C)=C\CO` [Nerol], the IC50 on EoblGOBP2 (class symbol, protein 1.5 μM) is more than 50 µM. Moreover, on EoblGOBP2 (setting [1]), the Kd was more than 11.2 µM.

Regarding `CCOP(=O)(OCC)OCC` [Triethyl phosphate], the 50% inhibitory concentration (IC50) on EoblGOBP2 (class symbol, protein 1.5 μM) was more than 50 µM. Besides, on EoblGOBP2 (setting [1]), the Kd was more than 11.2 µM.

As for `CCCCCCO` [n-hexanol], at EoblGOBP2 (class symbol, protein 1.5 μM), the IC50 was more than 50 µM. The Kd on EoblGOBP2 (setting [1]) was more than 11.2 µM.

For `CCCCCO` [n-pentanol], the half-inhibitory concentration (IC50) at EoblGOBP2 (class symbol, protein 1.5 μM) was more than 50 µM. Further, at EoblGOBP2 (setting [1]), the Kd was more than 11.2 µM.

At EoblGOBP2 (class symbol, protein 1.5 μM), `CC1=CC[C@@H](C(C)(C)O)CC1` [α-terpineol] yielded an IC50 of more than 50 µM. Besides, the Kd at EoblGOBP2 (setting [1]) was more than 11.2 µM.

Regarding `CC(=O)/C=C/C1=C(C)CCCC1(C)C` [β-ionone], the Kd on EoblGOBP2 (setting [2]) was 12.6 µM. The IC50 on EoblGOBP2 (setting [3]) worked out at 56.1 µM. Also, the “EAG response in male and female antennae (in words)” value in the experiment with E. obliqua antennae is on record as “weak responses”.
